Residues, ends and D or L forms follow the SMILES beside them.
How the values were obtained:
[1] = system: various bacterial strains, both Gram‐positive and Gram‐negative, as well as S. cerevisiae; test: Kirby–Bauer disk diffusion, whole panel; type: cell-based; details: 100 μg peptide per disk, 37°C, 20 h, all strains tested
Protocol: (§1) The antibacterial activity was tested on Gram‐positive ( Staphylococcus aureus ATCC 25923, Streptococcus pyogenes ATCC 19615, Listeria monocytogenes ATCC 7644, Bacillus subtilis ATCC […], Enterococcus faecalis ATCC 29212, E. faecalis ATCC 51299, and some clinical isolates, Streptococcus mitis , Streptococcus oralis , S. pyogenes Group A and Streptococcus Group G), Gram‐negative ( Klebsiella aerogenes ATCC 13048, Salmonella enterica ATCC […], Escherichia coli ATCC 25922, Pseudomonas aeruginosa ATCC 27853, Acinetobacter baumannii ATCC […], Klebsiella pneumoniae ATCC 13883, Proteu mirabilis ATCC 14153) bacterial strains, and Saccharomyces cerevisiae ATCC 9763, according to the standardized disk diffusion Kirby–Bauer method.
(§2) Peptide solutions in DMSO were adsorbed into paper disks (Macherey‐Nagel 615, Germany) of 6 mm in diameter. Every disk was loaded with 100 μg of peptide. The bacteria inoculum was of 0.5 Mc Farland, corresponding to 1–2 x 10^8 CFU/mL. The tests were carried out on Mueller–Hinton culture medium at pH 7.2–7.4 with incubation at 37°C for 20 h. Peptide activity was determined by measuring the diameters (in millimeters) of bacteria/fungi growth inhibition around the paper disks.

S. ent. ATCC 13076 = test: Kirby–Bauer disk diffusion; type: cell-based, Salmonella enterica; details: 20 h; for diameter of growth inhibition, S. ent. ATCC 13076: 100 μg peptide per 6 mm disk, Mueller–Hinton pH 7.2–7.4, 37°C, — read as no inhibition
Protocol: as §1, §2

[2] = Peptide stability in serum; type: in vitro ADME; details: human serum in HEPES 25 mM pH 7.6, 37°C, over 24 h, HPLC or HPLC–MS, triplicate
Protocol: The peptides were dissolved in DMSO at a concentration of 5 mg/mL. In Eppendorf tubes, 1 mL of HEPES buffer (25 mM, pH = 7.6) was temperature equilibrated at 37°C before adding 250 μL of human serum and 20 μL of peptide solution. The reaction was monitored for 24 h. At fixed intervals, 100 μL of the solution was withdrawn and added with 200 μL of absolute ethanol. The sample was kept on ice for 15 min and then centrifuged at 16,000 g for 5 min. Finally, the supernatant solution was analyzed by HPLC or HPLC–MS..
A peptide of similar length, not resistant to degradation in serum, was used as a positive test. The peptide sequence is as follows: Tyr‐Ser‐Ser‐Phe‐Leu.
To verify peptide stability in buffer solution, samples containing peptide solutions, buffer, and ethanol were also analyzed. All of the degradation experiments were carried out in triplicate.

[3] = no CD signal in phosphate buffer (PB) pH 7.4, peptide 1 mM, room temperature
Protocol: Electronic CD curves in the amide region (190–260 nm) were obtained on a Jasco (Tokyo, Japan) model J‐1500 spectropolarimeter. A fused quartz cell of 0.02 cm pathlength (Hellma, Mühlheim, Germany) was used to record spectra in phosphate buffer pH 7.4 (PB), and aqueous sodium dodecyl sulfate (SDS, 30 mM). Spectra were collected at room temperature with peptide concentrations of 1 mM. After baseline subtraction, the values recorded were transformed into [θ]T, the total molar ellipticity (deg × cm^2 × dmol^−1) by means of the JASCO software Spectra Manager.

SMILES | diameter of growth inhibition, S. ent. ATCC 13076 (S. ent. ATCC 13076) [mm] | serum stability, ranking in words [2] | solubility in water, in words [3] | further results
CC(=O)N[C@@H](Cc1c[nH]cn1)C(=O)N[C@@H](C)C(=O)N[C@H](C)C(=O)N[C@@H](Cc1c[nH]cn1)C(=O)NCCCCCCCCCCC(N)=O [P3, Ac‐His‐Ala‐D‐Ala‐His‐Aun‐NH2] (HELM PEPTIDE1{[ac].H.A.[dA].H.[O=C(CCCCCCCCCCN[*:1])[*:2]].[am]}$$$$V2.0) |  |  |  | antimicrobial activity over the panel, in words [1]: no activity
CCCCCCCCCCCC(=O)N[C@@H](Cc1c[nH]cn1)C(=O)N[C@@H](C)C(=O)N[C@H](C)C(=O)N[C@@H](Cc1c[nH]cn1)C(N)=O [P6, Laur‐His‐Ala‐D‐Ala‐His‐NH2] (HELM PEPTIDE1{[CCCCCCCCCCCC(=O)[*:2]].H.A.[dA].H.[am]}$$$$V2.0) | 9 |  |  | 
CCCCCCCCCCCC(=O)N[C@H](Cn1ccnc1)C(=O)N[C@@H](C)C(=O)N[C@H](C)C(=O)N[C@H](Cn1ccnc1)C(N)=O [P8, Laur‐D‐His*‐Ala‐D‐Ala‐D‐His*‐NH2] |  | best candidates in terms of serum stability |  | 
CCCCCCCCCCCCCCCC(=O)N[C@H](Cn1ccnc1)C(=O)N[C@@H](C)C(=O)N[C@H](C)C(=O)N[C@H](Cn1ccnc1)C(N)=O [P2, Palm‐D‐His*‐Ala‐D‐Ala‐D‐His*‐NH2] |  | best candidates in terms of serum stability | poor solubility in water | 
CCCCCCCCCCCCCCCC(=O)N[C@@H](Cn1ccnc1)C(=O)N[C@@H](C)C(=O)N[C@H](C)C(=O)N[C@@H](Cn1ccnc1)C(N)=O [P1, Palm‐L‐His*‐Ala‐D‐Ala‐L‐His*‐NH2] |  |  | poor solubility in water | 
CCCCCCCCCCCCCCCC(=O)N[C@@H](Cc1c[nH]cn1)C(=O)N[C@@H](C)C(=O)N[C@H](C)C(=O)N[C@@H](Cc1c[nH]cn1)C(N)=O [P0, Palm‐His‐Ala‐D‐Ala‐His‐NH2] (HELM PEPTIDE1{[CCCCCCCCCCCCCCCC(=O)[*:2]].H.A.[dA].H.[am]}$$$$V2.0) | 10 |  | poor solubility in water | activity against Salmonella enterica ATCC 13076, in words (S. ent. ATCC 13076; 100 μg peptide per disk, 37°C): selectively active
